Consider ten molecules from patent US9969775B2, “CGRP antagonist peptides” (Ferring B.V., priority 2015, dated 2018).

pIC50: −log10 of the molar value. Like-named read-outs stand apart in the source and are kept apart here. Numbered stars: 1 amine (or outer) side, 2 acyl side, 3 side chain; on linkers, the order of the positions; unused ones are H or OH. Bridge positions count the residues as written; N and C are the ends. Square brackets hold non-standard residues; d marks the D form. Peptide text beside a SMILES is read from it. * marks the point of attachment. Phe(3-CH2NH2) = O=C([C@H](Cc1cccc(CN[*:3])c1)N[*:1])[*:2]; Phe(2-CONH2) = NC(=O)c1ccccc1C[C@H](N)C(=O)O; Triazol3yl(1,2,4-5-NH2) = Nc1nc(*)n[nH]1; Imidazole4carbonyl = O=C(c1cnc[nH]1)*; Lys(iPr) = CC(C)NCCCC[C@H](N)C(=O)O; Lys(Me2) = CN(C)CCCC[C@H](N)C(=O)O; Orn(iPr) = CC(C)NCCC[C@H](N)C(=O)O; Orn(Me2) = CN(C)CCC[C@H](N)C(=O)O; Oxazole2carbonyl = O=C(c1ncco1)*; 3Pal = N[C@@H](Cc1cccnc1)C(=O)O; ΔPro = O=C(O)[C@@H]1C=CCN1; Orn = NCCC[C@H](N)C(=O)O; X2 = Cc1n[nH]c(C(=O)*)n1; Dab = NCC[C@H](N)C(=O)O; X1 = O=C(c1ncccc1F)*; X6 = O=C(c1ccncn1)*

Assay [1] has as its target T1, hAM2 receptor (CALCRL:RAMP3) (Homo sapiens, UniProt O60896+Q16602).
T1 construct: expressed in transfected cells; host or cells: GeneBLAzer CALCRL:RAMP3-CRE-bla Freestyle 293F
Put plainly: AM2 receptor antagonist activity measured by cAMP assay (HTRF). The settings on record: for pIC50: GeneBLAzer CALCRL:RAMP3-CRE-bla Freestyle 293F cells; for Emax: read-out: hAM2-R Efficacy Antag (%) Ave; for selectivity ratio CGRP/AM2: selectivity ratio for hCGRP over hAM2, calculated from the IC50 values. Type of assay: cell-based.
Method: Antagonist activity for the adrenomedullin receptor AM2 was determined using the method described in Example 6 above, with the following modifications. Instead of GeneBLAzer® CALCRL:RAMP1-CRE-bla Freestyle™ 293F cells, GeneBLAzer® CALCRL:RAMP3-CRE-bla Freestyle™ 293F cells were used to test activity at hAM2 receptors. The agonist was human adrenomedullin, instead of α-CGRP.
In Table 5, the selectivity ratio for hCGRP over hAM2 is calculated as hCGRP-R IC50/hAM2-R IC50.

Assay [2] deals with T2, hCGRP receptor (CALCRL:RAMP1) (Homo sapiens, UniProt O60894+Q16602).
T2 construct: host or cells: GeneBLAzer CALCRL:RAMP1-CRE-bla Freestyle 293F
T2 sequence (Q16602 23-461): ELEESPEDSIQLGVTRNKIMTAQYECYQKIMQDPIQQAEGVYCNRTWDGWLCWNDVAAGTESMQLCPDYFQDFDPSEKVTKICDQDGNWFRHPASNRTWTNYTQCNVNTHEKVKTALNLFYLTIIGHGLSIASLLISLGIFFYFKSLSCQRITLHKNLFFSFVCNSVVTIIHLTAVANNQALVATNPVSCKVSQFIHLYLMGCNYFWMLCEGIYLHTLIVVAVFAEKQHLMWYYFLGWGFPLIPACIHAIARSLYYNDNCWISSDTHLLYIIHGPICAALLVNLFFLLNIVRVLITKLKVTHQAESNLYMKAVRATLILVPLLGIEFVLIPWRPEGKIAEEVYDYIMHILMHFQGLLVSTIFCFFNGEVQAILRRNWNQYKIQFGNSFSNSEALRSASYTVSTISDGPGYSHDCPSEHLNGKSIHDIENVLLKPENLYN
T2 sequence (O60894 27-148): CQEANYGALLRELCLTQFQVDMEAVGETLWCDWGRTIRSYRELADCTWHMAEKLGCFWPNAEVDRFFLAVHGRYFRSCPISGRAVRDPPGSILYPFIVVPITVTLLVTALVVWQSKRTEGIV
Put plainly: CGRP receptor antagonist activity measured by cAMP assay (HTRF). Type of assay: cell-based. Particulars: for pIC50: GeneBLAzer CALCRL:RAMP1-CRE-bla Freestyle 293F cells, 30 minutes; for Emax: read-out: hCGRP-R Efficacy Antag (%) Ave.

Where [3] appears, read: % MPE: percent of the maximal possible effect, agonist human adrenomedullin.
Where [4] appears, read: agonist human adrenomedullin, read-out: hAM2-R IC50 Ave.
Setting [5] is: % MPE: percent of the maximal possible effect, agonist human α-CGRP.
[6] abbreviates: agonist human α-CGRP, read-out: hCGRP-R IC50 Ave.

T1 sequence (Q16602 23-461): as the sequence (Q16602 23-461) above
T1 sequence (O60896 24-148): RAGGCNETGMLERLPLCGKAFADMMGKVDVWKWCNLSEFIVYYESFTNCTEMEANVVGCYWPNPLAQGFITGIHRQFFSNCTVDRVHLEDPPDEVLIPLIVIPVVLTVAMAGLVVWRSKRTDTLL

The term pIC50 denotes −log10 of the IC50, conventionally taken in molar units. With `CC(C)NCCC[C@@H]1NC(=O)[C@@H](NC(=O)[C@H](Cc2ccccc2C(N)=O)NC(=O)[C@H](NC(=O)c2ncco2)C(C)C)CSSC[C@@H](C(=O)N[C@@H](Cc2cccnc2)C(N)=O)NC(=O)[C@H](Cc2cccnc2)NC(=O)[C@@H]2CCCN2C(=O)CNC(=O)[C@H](C(C)C)NC(=O)[C@H](CC(=O)O)NC1=O` [Compound 40, Oxazole-2-carbonyl-D-Val-Phe(2-Cbm)-c(Cys-Orn(iPr)-Asp-Val-Gly-Pro-3Pal-Cys)-3Pal-NH2] (Oxazole2carbonyl-[dV][Phe(2-CONH2)]C[Orn(iPr)]DVGP[3Pal]C[3Pal]-NH2; disulfide 3-10), the pIC50 is 6.01 in assay [1] (hAM2-R IC50 Ave, agonist human adrenomedullin) and 10.05 in assay [2] (hCGRP-R IC50 Ave, agonist human α-CGRP). In addition, the Emax in assay [1] was 98%; in assay [2], 100%. Also, the “selectivity ratio CGRP/AM2” value in assay [1] was 10884.
As for `CC(C)NCCCC[C@@H]1NC(=O)[C@@H](NC(=O)[C@H](Cc2ccccc2C(N)=O)NC(=O)[C@H](NC(=O)c2ncco2)C(C)C)CSSC[C@@H](C(=O)N[C@@H](Cc2cccnc2)C(N)=O)NC(=O)[C@H](Cc2cccnc2)NC(=O)[C@@H]2CCCN2C(=O)CNC(=O)[C@H](C(C)C)NC(=O)[C@H](CC(=O)O)NC1=O` [Compound 41, Oxazole-2-carbonyl-D-Val-Phe(2-Cbm)-c(Cys-Lys(iPr)-Asp-Val-Gly-Pro-3Pal-Cys)-3Pal-NH2] (Oxazole2carbonyl-[dV][Phe(2-CONH2)]C[Lys(iPr)]DVGP[3Pal]C[3Pal]-NH2; disulfide 3-10), the Emax in assay [1] (setting [3]) is 97%; in assay [2] (setting [5]), 100%. Besides, the pIC50 is 5.99 in assay [1] (setting [4]) and 9.89 in assay [2] (setting [6]). The “selectivity ratio CGRP/AM2” value in assay [1] is 8075.
As to `CC(C)[C@@H]1NC(=O)[C@H](CC(=O)O)NC(=O)[C@H](CCNc2nc(N)n[nH]2)NC(=O)[C@@H](NC(=O)[C@H](Cc2ccccc2C(N)=O)NC(=O)[C@H](NC(=O)c2ncco2)C(C)C)CSSC[C@@H](C(=O)N[C@@H](Cc2cccnc2)C(N)=O)NC(=O)[C@H](Cc2cccnc2)NC(=O)[C@@H]2CCCN2C(=O)CNC1=O` [Compound 42, Oxazole-2-carbonyl-D-Val-Phe(2-Cbm)-c(Cys-Dab(Atz)-Asp-Val-Gly-Pro-3Pal-Cys)-3Pal-NH2] (Oxazole2carbonyl-[dV][Phe(2-CONH2)]C[Dab](Triazol3yl(1,2,4-5-NH2))DVGP[3Pal]C[3Pal]-NH2; disulfide 3-10), the Emax in assay [1] (setting [3]) is 97%; in assay [2] (setting [5]), 100%.
Consider `CC(C)NCCC[C@@H]1NC(=O)[C@@H](NC(=O)[C@H](Cc2ccccc2C(N)=O)NC(=O)[C@H](NC(=O)c2ncco2)C(C)C)CSSC[C@@H](C(=O)N[C@@H](Cc2cccnc2)C(N)=O)NC(=O)[C@H](Cc2cccc(CN)c2)NC(=O)[C@@H]2C=CCN2C(=O)CNC(=O)[C@H](C(C)C)NC(=O)[C@H](CC(=O)O)NC1=O` [Compound 43, Oxazole-2-carbonyl-D-Val-Phe(2-Cbm)-c(Cys-Orn(iPr)-Asp-Val-Gly-Dhp-Phe(3-CH2NH2)-Cys)-3Pal-NH2] (Oxazole2carbonyl-[dV][Phe(2-CONH2)]C[Orn(iPr)]DVG[ΔPro][Phe(3-CH2NH2)]C[3Pal]-NH2; disulfide 3-10), for which the Emax in assay [1] (setting [3]) is 101%; in assay [2] (setting [5]), 100%. Also, the pIC50 is 6.74 in assay [1] (setting [4]) and 10.40 in assay [2] (setting [6]). Besides, the “selectivity ratio CGRP/AM2” value in assay [1] is 4693.
The corresponding values for `CC(C)[C@@H]1NC(=O)[C@H](CC(=O)O)NC(=O)[C@H](CCCNC(=O)[C@@H](N)CCCCN(C)C)NC(=O)[C@@H](NC(=O)[C@H](Cc2ccc(O)cc2)NC(=O)[C@H](NC(=O)c2ncco2)C(C)C)CSSC[C@@H](C(=O)N[C@@H](Cc2cccnc2)C(N)=O)NC(=O)[C@H](Cc2ccccc2)NC(=O)[C@@H]2CCCN2C(=O)CNC1=O` [Compound 44, Oxazole-2-carbonyl-D-Val-Tyr-c(Cys-Orn(Lys(Me2))-Asp-Val-Gly-Pro-Phe-Cys)-3Pal-NH2] (Oxazole2carbonyl-[dV]YC[Orn](Lys(Me2))DVGPFC[3Pal]-NH2; disulfide 3-10) are 100%, 100%, 6.94, 9.77 and 668.
The corresponding values for `CC(C)[C@@H]1NC(=O)[C@H](CC(=O)O)NC(=O)[C@H](CCCNC(=O)[C@@H](N)CCCCN(C)C)NC(=O)[C@@H](NC(=O)[C@H](Cc2ccc(O)cc2)NC(=O)[C@H](NC(=O)c2ccncn2)C(C)C)CSSC[C@@H](C(=O)N[C@@H](Cc2cccnc2)C(N)=O)NC(=O)[C@H](Cc2ccccc2)NC(=O)[C@@H]2CCCN2C(=O)CNC1=O` [Compound 45, Pyrimidine-4-carbonyl-D-Val-Tyr-c(Cys-Orn(Lys(Me2))-Asp-Val-Gly-Pro-Phe-Cys)-3Pal-NH2] (X6-[dV]YC[Orn](Lys(Me2))DVGPFC[3Pal]-NH2; disulfide 3-10) are 98%, 100%, 6.70, 9.74 and 1082.
The corresponding values for `CC(C)[C@@H]1NC(=O)[C@H](CC(=O)O)NC(=O)[C@H](CCCN(C)C)NC(=O)[C@@H](NC(=O)[C@H](Cc2ccc(O)cc2)NC(=O)[C@H](NC(=O)c2ncccc2F)C(C)C)CSSC[C@@H](C(=O)N[C@@H](Cc2cccnc2)C(N)=O)NC(=O)[C@H](Cc2ccccc2)NC(=O)[C@@H]2CCCN2C(=O)CNC1=O` [Compound 46, Picolinoyl(3-F)-D-Val-Tyr-c(Cys-Orn(Me2)-Asp-Val-Gly-Pro-Phe-Cys)-3Pal-NH2] (X1-[dV]YC[Orn(Me2)]DVGPFC[3Pal]-NH2; disulfide 3-10) are 99%, 100%, 6.74, 9.82 and 1189.
In the case of `CC(C)[C@@H]1NC(=O)[C@H](CC(=O)O)NC(=O)[C@H](CCCNC(=N)N)NC(=O)[C@@H](NC(=O)[C@H](Cc2ccc(O)cc2)NC(=O)[C@H](NC(=O)c2c[nH]cn2)C(C)C)CSSC[C@@H](C(=O)N[C@@H](Cc2cccnc2)C(N)=O)NC(=O)[C@H](Cc2ccccc2)NC(=O)[C@@H]2CCCN2C(=O)CNC1=O` [Compound 47] (Imidazole4carbonyl-[dV]YCRDVGPFC[3Pal]-NH2; disulfide 3-10), the Emax is 99% in assay [1] (setting [3]) and 100% in assay [2] (setting [5]). For the same molecule, the “selectivity ratio CGRP/AM2” value in assay [1] is listed as 1460.
As for `CC(C)[C@@H]1NC(=O)[C@H](CC(=O)O)NC(=O)[C@H](CCCNC(=N)N)NC(=O)[C@@H](NC(=O)[C@H](Cc2ccc(O)cc2)NC(=O)[C@H](NC(=O)c2cnc[nH]2)C(C)C)CSSC[C@@H](C(=O)N[C@@H](Cc2cccnc2)C(N)=O)NC(=O)[C@H](Cc2ccccc2)NC(=O)[C@@H]2CCCN2C(=O)CNC1=O` [Compound 47] (Imidazole4carbonyl-[dV]YCRDVGPFC[3Pal]-NH2; disulfide 3-10), the figures for the pIC50 in assay [1] (setting [4]) and in assay [2] (setting [6]) were 6.63 and 9.80, respectively.
For `Cc1n[nH]c(C(=O)N[C@@H](C(=O)N[C@@H](Cc2ccc(O)cc2)C(=O)N[C@H]2CSSC[C@@H](C(=O)N[C@@H](Cc3cccnc3)C(N)=O)NC(=O)[C@H](Cc3ccccc3)NC(=O)[C@@H]3CCCN3C(=O)CNC(=O)[C@H](C(C)C)NC(=O)[C@H](CC(=O)O)NC(=O)[C@H](CCCNC(=N)N)NC2=O)C(C)C)n1` [Compound 48] (X2-[dV]YCRDVGPFC[3Pal]-NH2; disulfide 3-10), the values for the Emax in assay [1] (setting [3]) and in assay [2] (setting [5]) were 96% and 100%, respectively. In addition, the negative logarithm of the IC50 (pIC50) is 6.40 in assay [1] (setting [4]) and 10.15 in assay [2] (setting [6]). In addition, in assay [1], the “selectivity ratio CGRP/AM2” value is on record as 5610.
